# Measured values as given in PubChem BioAssay AID1919006 (Molecular Pharmacology Branch, DTP, NCI, 2023).
# Where “and” joins values, the source holds several entries; their conditions need not be identical. Identical values can stand only once.
# Tested on: 885512-296-R-J2-PDC complex spheroid growth, % test/control
# Experiment: Anticancer human tumor 885512-296-R-J2-PDC patient-derived breast carcinoma cell line growth inhibition [AhR]
# Conditions: for viability, T/C: stronger effect = lower value
# Method in brief: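 Agents were dosed in half-log steps down from roughly clinical Cmax, or from 10 microM where Cmax was unknown, alone and with AhR antagonists. Read-out: percent test/control growth of tumor spheroids containing HUVEC and MSC stromal cells.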
# [1] = curve of first compound, second compound 0.1 µM
# [2] = curve of first compound, second compound 0.316 µM
# [3] = curve of first compound, second compound 1 µM
# [4] = curve of first compound, second compound 3.16 µM
# [5] = curve of first compound, second compound 10 µM
# [6] = second compound 0.1 µM, first compound 0.0316 µM
# [7] = second compound 0.1 µM, first compound 0.1 µM
# [8] = second compound 0.1 µM, first compound 0.316 µM
# [9] = second compound 0.1 µM, first compound 1 µM
# [10] = second compound 0.1 µM, first compound 3.16 µM
# [11] = second compound 0.1 µM, first compound 10 µM
# [12] = second compound 0.316 µM, first compound 0.0316 µM
# [13] = second compound 0.316 µM, first compound 0.1 µM
# [14] = second compound 0.316 µM, first compound 0.316 µM
# [15] = second compound 0.316 µM, first compound 1 µM
# [16] = second compound 0.316 µM, first compound 3.16 µM
# [17] = second compound 0.316 µM, first compound 10 µM
# [18] = second compound 1 µM, first compound 0.0316 µM
# [19] = second compound 1 µM, first compound 0.1 µM
# [20] = second compound 1 µM, first compound 0.316 µM
# [21] = second compound 1 µM, first compound 1 µM
# [22] = second compound 1 µM, first compound 3.16 µM
# [23] = second compound 1 µM, first compound 10 µM
# [24] = second compound 3.16 µM, first compound 0.0316 µM
# [25] = second compound 3.16 µM, first compound 0.1 µM
# [26] = second compound 3.16 µM, first compound 0.316 µM
# [27] = second compound 3.16 µM, first compound 1 µM
# [28] = second compound 3.16 µM, first compound 3.16 µM
# [29] = second compound 3.16 µM, first compound 10 µM
# [30] = second compound 10 µM, first compound 0.0316 µM
# [31] = second compound 10 µM, first compound 0.1 µM
# [32] = second compound 10 µM, first compound 0.316 µM
# [33] = second compound 10 µM, first compound 1 µM
# [34] = second compound 10 µM, first compound 3.16 µM
# [35] = second compound 10 µM, first compound 10 µM
# 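Note: spheroids exposed to compounds for seven days.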
Compound,IC50 [1],IC50 [2],IC50 [3],IC50 [4],IC50 [5],"viability, T/C [6]","viability, T/C [7]","viability, T/C [8]","viability, T/C [9]","viability, T/C [10]","viability, T/C [11]","viability, T/C [12]","viability, T/C [13]","viability, T/C [14]","viability, T/C [15]","viability, T/C [16]","viability, T/C [17]","viability, T/C [18]","viability, T/C [19]","viability, T/C [20]",other results
O=C(c1cc(Cc2n[nH]c(=O)c3ccccc23)ccc1F)N1CCN(C(=O)C2CC2)CC1 + Cc1ccccc1N=Nc1ccc(NC(=O)c2ccnn2C)c(C)c1,5920 nM,5820 nM,5520 nM,4790 nM,3440 nM,118%,135%,147%,117%,83.7%,22.6%,138%,145%,138%,130%,80%,23.4%,121%,133%,132%,"viability, T/C [21]: 109%; viability, T/C [22]: 80.4%; viability, T/C [23]: 18.7%; viability, T/C [24]: 110%; viability, T/C [25]: 103%; viability, T/C [26]: 111%; viability, T/C [27]: 101%; viability, T/C [28]: 66.6%; viability, T/C [29]: 20.8%; viability, T/C [30]: 67.1%; viability, T/C [31]: 59.5%; viability, T/C [32]: 66.4%; viability, T/C [33]: 70.8%; viability, T/C [34]: 52.6%; viability, T/C [35]: 17.5%"
Nc1ccn(C2OC(CO)C(O)C2(F)F)c(=O)n1 (configuration not stated),–,–,–,–,–,–,–,–,–,–,–,–,–,–,–,–,–,–,–,–,"viability, T/C (compound 0.0316 µM): 3% and 2.24% and 2.66%; viability, T/C (compound 0.1 µM): 3.22% and 2.41% and 2.65%; viability, T/C (compound 0.316 µM): 3.38% and 3.96% and 3.68%; viability, T/C (compound 1 µM): 3.04% and 4.06% and 3.38%; viability, T/C (compound 3.16 µM): 3.46% and 3.77% and 3.42%; viability, T/C (compound 10 µM): 3.08% and 3.9% and 2.46%; IC50 (curve of compound): < 31.6 nM"
Nc1ccccc1NC(=O)c1ccc(CNC(=O)OCc2cccnc2)cc1 + CC(CO)NC(=O)c1cc(-c2ccc(Cl)cc2)nn(-c2cnn(C)c2)c1=O,696 nM,620 nM,704 nM,590 nM,452 nM,91.9%,76.4%,61.9%,42%,31.8%,13%,85.1%,70.3%,62.2%,43.4%,24.6%,11.6%,92.8%,80.2%,58.8%,"viability, T/C [21]: 44%; viability, T/C [22]: 32.6%; viability, T/C [23]: 11.6%; viability, T/C [24]: 85.4%; viability, T/C [25]: 78.6%; viability, T/C [26]: 59%; viability, T/C [27]: 36.8%; viability, T/C [28]: 31.4%; viability, T/C [29]: 9.96%; viability, T/C [30]: 82.6%; viability, T/C [31]: 74.2%; viability, T/C [32]: 55.5%; viability, T/C [33]: 34%; viability, T/C [34]: 24.1%; viability, T/C [35]: 6.25%"
